Data from patent publication US20140120087A1, “TRIAZOLOPYRIDINES” (BAYER INTELLECTUAL PROPERTY GMBH, priority 2011, published 2014).
pIC50: −log10 of the molar value.

Experiments:
[1] = Hydrolytic stability assay at pH 2; format: physicochemical; details: buffer pH 2, 37° C., compounds of the invention
Summary of the method: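 Compound from a 10 mM DMSO stock was diluted in acetonitrile, added to pH 2 buffer and incubated at 37° C. HPLC injections were made at time zero and after 1, 2 and 24 hrs. Decay (%) was calculated from peak areas relative to the time-zero injection.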

[2] = molecular target: T1, Mps-1 kinase (Homo sapiens, UniProt P33981); test: Mps-1 kinase assay with 2 mM ATP (TR-FRET)
T1 sequence (P33981 1-857): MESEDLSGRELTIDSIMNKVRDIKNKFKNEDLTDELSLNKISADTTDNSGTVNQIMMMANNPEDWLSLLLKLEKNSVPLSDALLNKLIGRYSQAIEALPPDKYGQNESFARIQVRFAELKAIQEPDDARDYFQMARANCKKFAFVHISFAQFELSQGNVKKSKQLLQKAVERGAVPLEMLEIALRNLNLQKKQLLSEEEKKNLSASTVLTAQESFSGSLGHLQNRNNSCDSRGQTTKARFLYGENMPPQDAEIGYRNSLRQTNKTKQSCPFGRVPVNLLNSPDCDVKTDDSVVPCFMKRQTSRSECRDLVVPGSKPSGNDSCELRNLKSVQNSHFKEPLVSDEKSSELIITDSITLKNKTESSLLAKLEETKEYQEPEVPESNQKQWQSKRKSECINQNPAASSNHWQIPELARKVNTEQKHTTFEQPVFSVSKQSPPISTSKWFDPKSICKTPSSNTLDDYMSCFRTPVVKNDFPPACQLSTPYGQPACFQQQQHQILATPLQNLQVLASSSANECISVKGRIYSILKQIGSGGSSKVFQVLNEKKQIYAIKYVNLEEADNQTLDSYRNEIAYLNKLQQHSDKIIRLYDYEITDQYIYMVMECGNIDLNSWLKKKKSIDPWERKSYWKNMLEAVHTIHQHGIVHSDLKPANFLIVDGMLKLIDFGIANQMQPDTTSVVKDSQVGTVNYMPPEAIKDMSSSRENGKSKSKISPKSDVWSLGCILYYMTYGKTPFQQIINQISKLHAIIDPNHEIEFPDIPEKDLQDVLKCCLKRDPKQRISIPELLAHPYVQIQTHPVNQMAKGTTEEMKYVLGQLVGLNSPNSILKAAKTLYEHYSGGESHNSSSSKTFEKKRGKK

[3] = molecular target: T1, Mps-1 kinase; test: Mps-1 kinase assay with 10 μM ATP (TR-FRET)

Row | Compound | Hydrolysis at pH 2; Decay in % after 24 h [1] [%] | pIC50 [2] | pIC50 [3]
1 | CC(C)(O)CNC(=O)c1ccc(Nc2nc3ccc(-c4ccc(NC(=O)Cc5ccc(F)cc5)cc4)cn3n2)c(OCC(F)(F)F)c1 [Example 01.29, 4-{[6-(4-{[(4-fluorophenyl)acetyl]amino}phenyl)[1,2,4]triazolo[1,5-α]-pyridin-2-yl]amino}-N-(2-hydroxy-2-methylpropyl)-3-(2,2,2-trifluoro-ethoxy)benzamide] | <10 | ≥ 9.00 | ≥ 9.00
2 | CCNC(=O)c1ccc(Nc2nc3ccc(-c4ccc(NC(=O)Cc5ccc(F)cc5)cc4)cn3n2)c(OCC)c1 [Example 01.16, 3-ethoxy-N-ethyl-4-{[6-(4-{[(4-fluorophenyl)acetyl]amino}phenyl)[1,2,4]-triazolo[1,5-α]pyridin-2-yl]amino}benzamide] | <10 | ≥ 9.00 | ≥ 9.00
3 | COc1cc(C(=O)NCC(F)(F)F)ccc1Nc1nc2ccc(-c3ccc(C(=O)NCc4ccc(F)cc4)cc3)cn2n1 [Example 02.17, 4-[(6-{4-[(4-fluorobenzyl)carbamoyl]phenyl}[1,2,4]triazolo[1,5-α]pyridin-2-yl)amino]-3-methoxy-N-(2,2,2-trifluoroethyl)benzamide] | <10 | 8.34 | ≥ 9.00
4 | CNC(=O)c1ccc(Nc2nc3ccc(-c4ccc(C(=O)NCc5ccc(F)cc5)cc4)cn3n2)c(OC)c1 [Example 02.13, 4-[(6-{4-[(4-fluorobenzyl)carbamoyl]phenyl}[1,2,4]triazolo[1,5-α]pyridin-2-yl)amino]-3-methoxy-N-methylbenzamide] | <10 | ≥ 9.00 | ≥ 9.00
5 | O=C(NCCO)c1ccc(Nc2nc3ccc(-c4ccc(C(=O)NCC5CC5)cc4)cn3n2)c(OCC(F)(F)F)c1 [Example 06.4, 4-[(6-{4-[(cyclopropylmethyl)carbamoyl]phenyl}[1,2,4]triazolo[1,5-α]-pyridin-2-yl)amino]-N-(2-hydroxyethyl)-3-(2,2,2-trifluoroethoxy)benzamide] | <10 | 7.96 | ≥ 9.00
6 | CCOc1cc(C(=O)NCCO)ccc1Nc1nc2ccc(-c3ccc(C(=O)NCc4ccc(F)cc4)cc3)cn2n1 [Example 02.2, 3-ethoxy-4-[(6-{4-[(4-fluorobenzyl)carbamoyl]phenyl}[1,2,4]triazolo[1,5-α]pyridin-2-yl)amino]-N-(2-hydroxyethyl)benzamide] | <10 | ≥ 9.00 | ≥ 9.00
7 | COc1cc(C#N)ccc1Nc1nc2ccc(-c3ccc(NC(=O)Cc4ccc(F)cc4)cc3)cn2n1 [Example 01.2, N-(4-{2-[(4-cyano-2-methoxyphenyl)amino][1,2,4]triazolo[1,5-α]pyridin-6-yl}phenyl)-2-(4-fluorophenyl)acetamide] | <10 | 8.39 | ≥ 9.00
8 | COc1cc(C(=O)N(C)CCN(C)C(C)=O)ccc1Nc1nc2ccc(-c3ccc(C(=O)NCc4ccc(F)cc4)cc3)cn2n1 [Example 02.9, N-{2-[acetyl(methyl)amino]ethyl}-4-[(6-{4-[(4-fluorobenzyl)carbamoyl]-phenyl}[1,2,4]triazolo[1,5-α]pyridin-2-yl)amino]-3-methoxy-N-methylbenzamide] | <10 | 8.66 | ≥ 9.00
9 | CCOc1cc(C(=O)N(CC)CC)ccc1Nc1nc2ccc(-c3ccc(NC(=O)Cc4ccc(F)cc4)cc3)cn2n1 [Example 01.10, 3-ethoxy-N,N-diethyl-4-{[6-(4-{[(4-fluorophenyl)acetyl]amino}phenyl)-[1,2,4]triazolo[1,5-α]pyridin-2-yl]amino}benzamide] | <10 | ≥ 9.00 | ≥ 9.00
10 | CCOc1cc(C(=O)N(C)CCO)ccc1Nc1nc2ccc(-c3ccc(C(=O)NCc4ccc(F)cc4)cc3)cn2n1 [Example 02.12, 3-ethoxy-4-[(6-{4-[(4-fluorobenzyl)carbamoyl]phenyl}[1,2,4]triazolo[1,5-α]pyridin-2-yl)amino]-N-(2-hydroxyethyl)-N-methylbenzamide] | <10 | ≥ 9.00 | ≥ 9.00
11 | COc1cc(S(C)(=O)=O)ccc1Nc1nc2ccc(-c3ccc(C(=O)NCc4ccc(F)cc4)cc3)cn2n1 [Example 02.6, N-(4-fluorobenzyl)-4-(2-{[2-methoxy-4-(methylsulfonyl)phenyl]amino}-[1,2,4]triazolo[1,5-α]pyridin-6-yl)benzamide] | <10 | 8.37 | ≥ 9.00
12 | O=C(Cc1ccc(F)cc1)Nc1ccc(-c2ccc3nc(Nc4ccc(C(=O)NCCO)cc4OCC(F)(F)F)nn3c2)cc1 [Example 01.11, 4-{[6-(4-{[(4-fluorophenyl)acetyl]amino}phenyl)[1,2,4]triazolo[1,5-α]-pyridin-2-yl]amino}-N-(2-hydroxyethyl)-3-(2,2,2-trifluoroethoxy)benzamide] | <10 | ≥ 9.00 | ≥ 9.00
13 | COc1cc(C(=O)NC(C)(C)CO)ccc1Nc1nc2ccc(-c3ccc(C(=O)NCc4ccc(F)cc4)c(F)c3)cn2n1 [Example 03.1, 2-fluoro-N-(4-fluorobenzyl)-4-[2-({4-[(1-hydroxy-2-methylpropan-2-yl)-carbamoyl]-2-methoxyphenyl}amino)[1,2,4]triazolo[1,5-α]pyridin-6-yl]-benzamide] | <10 | 8.16 | ≥ 9.00
14 | CCN(CC)C(=O)c1ccc(Nc2nc3ccc(-c4ccc(NC(=O)Cc5ccc(F)cc5)cc4)cn3n2)c(OCC2CC2)c1 [Example 01.24, 3-(cyclopropylmethoxy)-N,N-diethyl-4-{[6-(4-{[(4-fluorophenyl)acetyl]-amino}phenyl)[1,2,4]triazolo[1,5-α]pyridin-2-yl]amino}benzamide] | <10 | 8.92 | ≥ 9.00
15 | O=C(Cc1ccc(F)cc1)Nc1ccc(-c2ccc3nc(Nc4ccc(C(=O)NCC(F)(F)F)cc4OCC(F)(F)F)nn3c2)cc1 [Example 01.27, 4-{[6-(4-{[(4-fluorophenyl)acetyl]amino}phenyl)[1,2,4]triazolo[1,5-α]-pyridin-2-yl]amino}-3-(2,2,2-trifluoroethoxy)-N-(2,2,2-trifluoroethyl)-benzamide] | <10 | ≥ 9.00 | ≥ 9.00
16 | COc1cc(C(=O)NC(C)(C)CO)ccc1Nc1nc2ccc(-c3ccc(C(=O)NCc4ccc(F)cc4)c(C)c3)cn2n1 [Example 04.1, N-(4-fluorobenzyl)-4-[2-({4-[(1-hydroxy-2-methylpropan-2-yl)carbamoyl]-2-methoxyphenyl}amino)[1,2,4]triazolo[1,5-α]pyridin-6-yl]-2-methylbenz-amide] | <10 | 7.80 | ≥ 9.00
17 | CNCCN(C)C(=O)c1ccc(Nc2nc3ccc(-c4ccc(NC(=O)Cc5ccc(F)cc5)cc4)cn3n2)c(OC)c1 [Example 01.20, 4-{[6-(4-{[(4-fluorophenyl)acetyl]amino}phenyl)[1,2,4]triazolo[1,5-α]-pyridin-2-yl]amino}-3-methoxy-N-methyl-N-[2-(methylamino)ethyl]-benzamide] | <10 | ≥ 9.00 | ≥ 9.00
18 | O=C(NCCO)c1ccc(Nc2nc3ccc(-c4ccc(C(=O)NCc5ccc(F)cc5)cc4)cn3n2)c(OCC(F)(F)F)c1 [Example 02.4, 4-[(6-{4-[(4-fluorobenzyl)carbamoyl]phenyl}[1,2,4]triazolo[1,5-α]pyridin-2-yl)amino]-N-(2-hydroxyethyl)-3-(2,2,2-trifluoroethoxy)benzamide] | <10 | ≥ 9.00 | ≥ 9.00
19 | O=C(NCc1ccc(F)cc1)c1ccc(-c2ccc3nc(Nc4ccc(C(=O)NCC(F)(F)F)cc4OCC(F)(F)F)nn3c2)cc1 [Example 02.23, 4-[(6-{4-[(4-fluorobenzyl)carbamoyl]phenyl}[1,2,4]triazolo[1,5-α]pyridin-2-yl)amino]-3-(2,2,2-trifluoroethoxy)-N-(2,2,2-trifluoroethyl)benzamide] | <10 | ≥ 9.00 | ≥ 9.00
20 | COc1cc(C(=O)NCC(C)(C)O)ccc1Nc1nc2ccc(-c3ccc(C(=O)NCc4ccc(F)cc4)cc3)cn2n1 [Example 02.5, 4-[(6-{4-[(4-fluorobenzyl)carbamoyl]phenyl}[1,2,4]triazolo[1,5-α]pyridin-2-yl)amino]-N-(2-hydroxy-2-methylpropyl)-3-methoxybenzamide] | <10 | 8.74 | ≥ 9.00
